The target in series [1] is ErbB2 insYVMA (HER2-YVMA, SEQ ID NO: 2) (Homo sapiens, UniProt P04626, INS775YVMA/P1170A). Briefly: biochemical. The settings on record: ErbB2 insYVMA enzyme assay; read-out: Assay 1 IC50.
A further series has as its target ErbB2 WT (Homo sapiens (Human), UniProt P04626). Briefly: ErbB enzyme assay (CisBio HTRF KinEASE-TK), Assay 2. It counts as biochemical. In short, it runs like this:
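ErbB2 phosphorylates 250 nM biotin-TK substrate at 1 mM ATP in 25 mM HEPES pH 7.4, 10 mM MgCl2, 0.01% Triton X-100 and 2% DMSO, for 30 min at 22 °C. Product is detected by HTRF with Sa-XL665 and TK-Ab-Cryptate. Percent of control is set by DMSO-only wells and pre-quenched wells.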

The target of a further series is EGFR (Homo sapiens (Human), UniProt P00533). Nature of the series: ErbB enzyme assay (CisBio HTRF KinEASE-TK), Assay 3. It counts as biochemical. In short, it runs like this:
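HTRF KinEASE-TK assay: kinase with 250 nM biotinylated TK-substrate and 1 mM ATP in 25 mM HEPES pH 7.4, 10 mM MgCl2, 0.01% Triton X-100, 2% DMSO, 30 min at 22 °C. Quenched with Sa-XL665/TK-Ab-Cryptate, read after 1 h. IC50 from 4-parameter fit of percent of control.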
(TR-FRET usually uses a lanthanide donor and a delayed reading to cut background.)

Series [2] deals with ErbB2 with Exon 20 YVMA insertion (HER2-YVMA) (Homo sapiens (Human), UniProt P04626, INS775YVMA). Briefly: Cellular phosphorylation assay, constitutive ErbB2 phosphorylation (Y1196) in engineered NIH 3T3 cells, Assay 4. The class given is cell-based. In short, it runs like this: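 Engineered NIH 3T3 cells expressing HER2-YVMA treated with compounds 1 h at 37 °C, then formaldehyde-fixed and methanol-permeabilized. pErbB2 Y1196 detected by in-cell infrared immunofluorescence, normalized to GAPDH. IC50 from the normalized curves.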
Chain of ErbB2 with Exon 20 YVMA insertion (HER2-YVMA) (P04626 other isoform, or with tags, fused parts or gaps ins YVMA behind 775): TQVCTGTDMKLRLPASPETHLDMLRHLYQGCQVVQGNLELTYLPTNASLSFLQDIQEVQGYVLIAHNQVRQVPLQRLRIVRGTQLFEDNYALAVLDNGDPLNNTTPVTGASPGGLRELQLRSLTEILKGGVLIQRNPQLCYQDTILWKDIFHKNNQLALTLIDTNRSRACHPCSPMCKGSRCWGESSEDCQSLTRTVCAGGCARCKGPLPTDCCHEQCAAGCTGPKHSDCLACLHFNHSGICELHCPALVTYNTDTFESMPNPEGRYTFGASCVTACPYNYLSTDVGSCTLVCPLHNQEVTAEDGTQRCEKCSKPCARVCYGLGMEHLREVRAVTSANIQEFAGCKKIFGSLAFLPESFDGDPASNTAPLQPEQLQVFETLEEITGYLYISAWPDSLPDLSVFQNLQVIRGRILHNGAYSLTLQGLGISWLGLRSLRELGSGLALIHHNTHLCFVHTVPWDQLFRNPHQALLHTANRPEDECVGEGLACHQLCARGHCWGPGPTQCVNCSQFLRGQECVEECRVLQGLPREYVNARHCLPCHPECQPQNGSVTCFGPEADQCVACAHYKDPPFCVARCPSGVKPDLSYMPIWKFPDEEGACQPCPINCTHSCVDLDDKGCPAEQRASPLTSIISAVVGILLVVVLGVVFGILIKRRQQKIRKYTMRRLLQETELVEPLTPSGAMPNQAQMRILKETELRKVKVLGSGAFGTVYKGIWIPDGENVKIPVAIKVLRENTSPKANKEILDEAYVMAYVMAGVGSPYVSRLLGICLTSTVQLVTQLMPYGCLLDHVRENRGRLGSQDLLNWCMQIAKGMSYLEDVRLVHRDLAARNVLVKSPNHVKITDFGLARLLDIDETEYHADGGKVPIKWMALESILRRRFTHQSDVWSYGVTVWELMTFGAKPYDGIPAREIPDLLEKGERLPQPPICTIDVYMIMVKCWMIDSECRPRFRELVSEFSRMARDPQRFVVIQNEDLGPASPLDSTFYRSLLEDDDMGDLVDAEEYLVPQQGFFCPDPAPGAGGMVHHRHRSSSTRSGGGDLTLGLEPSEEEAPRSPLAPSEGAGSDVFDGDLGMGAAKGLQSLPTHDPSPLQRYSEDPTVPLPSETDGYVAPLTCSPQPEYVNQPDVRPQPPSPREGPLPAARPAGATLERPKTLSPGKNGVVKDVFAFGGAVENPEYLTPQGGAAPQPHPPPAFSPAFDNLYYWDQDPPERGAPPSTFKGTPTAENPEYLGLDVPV

For series [3], the target named is T1, EGFR wild type (EGFR WT) (Homo sapiens (Human), UniProt P00533). Briefly: Cellular phosphorylation assay, EGF-stimulated EGFR phosphorylation (Y1068) in engineered NIH 3T3 cells, Odyssey imaging, Assay 5 (footnote 1). The class given is cell-based. The settings on record: values marked with footnote 1. Here is the method: NIH 3T3 cells were engineered to express ErbB2 with Exon 20 YVMA insertion (HER2-YVMA (SEQ ID NO: 2); Assay 4) or EGFR wild type (EGFR WT; Assay 5, footnote 1) with constructs obtained from GenScript and grown in DMEM supplemented with 10% fetal bovine serum and 15 μg/ml blasticidin. Cells were plated in 96-well plates at 40,000 or 45,000 cells/well for HER2-YVMA (SEQ ID NO: 2) and EGFR WT assays, respectively, and allowed to attach overnight at 37° C./5% CO2. Serially diluted compounds were added to the plates for 1 hour at 37° C./5% CO2. EGFR WT cells were stimulated with 100 ng/ml rEGF for an additional 10 minutes at 37° C./5% CO2. After compound incubation, medium was removed from the cells, which were then fixed in 3.7% formaldehyde in PBS at room temperature for 20 minutes. Following a wash with PBS, cells were permeabilized with 100% methanol at room temperature for 10 minutes. Cells were then washed with PBS/0.05% Tween-20 and blocked with Odyssey blocking buffer (LI-COR Biosciences) for at least 1 hour at room temperature. Antibodies to phosphorylated ErbB2 (Y1196, Cell Signaling #6942) or phosphorylated EGFR (Y1068, Cell Signaling #3777) and GAPDH (Millipore #MAB374) were added to the cells in blocking buffer containing 0.05% azide and incubated overnight at 4° C. After washing with PBS/0.05° i° Tween-20, the cells were incubated with fluorescently labeled secondary anti-rabbit antibody (LiCOR, IRDye 800CW #926-32211) and anti-mouse antibody (Molecular Probes, Alexa Fluor 680 #A21058) for 1 hour at room temperature in the dark. Cells were then washed and analyzed for fluorescence at both wavelengths using the Odyssey Infrared Imaging System (LI-COR Biosciences). Phosphorylated ErbB2 and EGFR signal was normalized to GAPDH signal to generate curves and calculate IC50 values.
T1 sequence (P00533 25-1210): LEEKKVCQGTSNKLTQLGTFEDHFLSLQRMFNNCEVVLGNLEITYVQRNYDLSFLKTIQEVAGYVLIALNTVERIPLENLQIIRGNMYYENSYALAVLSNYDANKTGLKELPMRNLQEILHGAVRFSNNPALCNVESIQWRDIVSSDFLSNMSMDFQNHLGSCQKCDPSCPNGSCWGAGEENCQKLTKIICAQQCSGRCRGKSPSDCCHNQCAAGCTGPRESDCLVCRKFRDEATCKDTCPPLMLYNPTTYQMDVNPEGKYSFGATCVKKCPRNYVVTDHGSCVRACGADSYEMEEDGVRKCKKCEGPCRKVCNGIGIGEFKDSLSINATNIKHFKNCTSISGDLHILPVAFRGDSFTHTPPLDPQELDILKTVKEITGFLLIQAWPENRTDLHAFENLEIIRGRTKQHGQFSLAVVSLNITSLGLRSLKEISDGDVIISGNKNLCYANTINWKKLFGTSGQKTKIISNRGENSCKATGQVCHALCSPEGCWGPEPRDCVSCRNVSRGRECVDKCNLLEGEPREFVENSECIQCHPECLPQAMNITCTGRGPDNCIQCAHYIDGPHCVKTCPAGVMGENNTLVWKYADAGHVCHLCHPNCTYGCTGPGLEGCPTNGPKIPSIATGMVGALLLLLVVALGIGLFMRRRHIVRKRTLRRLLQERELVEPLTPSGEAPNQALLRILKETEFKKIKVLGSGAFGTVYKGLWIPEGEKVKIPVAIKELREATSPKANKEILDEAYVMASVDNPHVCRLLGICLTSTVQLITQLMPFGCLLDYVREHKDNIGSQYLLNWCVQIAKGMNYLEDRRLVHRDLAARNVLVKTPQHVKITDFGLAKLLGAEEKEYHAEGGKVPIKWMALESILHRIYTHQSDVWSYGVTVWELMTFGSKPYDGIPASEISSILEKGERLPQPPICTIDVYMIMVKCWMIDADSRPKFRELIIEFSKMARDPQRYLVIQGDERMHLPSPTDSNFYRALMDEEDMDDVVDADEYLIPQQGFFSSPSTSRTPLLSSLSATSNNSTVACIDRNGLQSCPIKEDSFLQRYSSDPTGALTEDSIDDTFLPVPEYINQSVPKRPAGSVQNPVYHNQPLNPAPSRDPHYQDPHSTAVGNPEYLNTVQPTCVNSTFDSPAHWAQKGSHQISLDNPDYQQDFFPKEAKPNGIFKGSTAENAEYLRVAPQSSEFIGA

Series [4] deals with T2, MDR1 (P-gp) (Homo sapiens (Human), UniProt P08183). Nature of the series: MDR1 transfected LLC-PK1 permeability/efflux, Assay 6. The following applies: pig, LLC-PK1, Assay 6 Pe Ratio, efflux ratio Papp(B-A)/Papp(A-B), MDR1 transfected LLC-PK1.
T2 sequence (P08183 whole entry): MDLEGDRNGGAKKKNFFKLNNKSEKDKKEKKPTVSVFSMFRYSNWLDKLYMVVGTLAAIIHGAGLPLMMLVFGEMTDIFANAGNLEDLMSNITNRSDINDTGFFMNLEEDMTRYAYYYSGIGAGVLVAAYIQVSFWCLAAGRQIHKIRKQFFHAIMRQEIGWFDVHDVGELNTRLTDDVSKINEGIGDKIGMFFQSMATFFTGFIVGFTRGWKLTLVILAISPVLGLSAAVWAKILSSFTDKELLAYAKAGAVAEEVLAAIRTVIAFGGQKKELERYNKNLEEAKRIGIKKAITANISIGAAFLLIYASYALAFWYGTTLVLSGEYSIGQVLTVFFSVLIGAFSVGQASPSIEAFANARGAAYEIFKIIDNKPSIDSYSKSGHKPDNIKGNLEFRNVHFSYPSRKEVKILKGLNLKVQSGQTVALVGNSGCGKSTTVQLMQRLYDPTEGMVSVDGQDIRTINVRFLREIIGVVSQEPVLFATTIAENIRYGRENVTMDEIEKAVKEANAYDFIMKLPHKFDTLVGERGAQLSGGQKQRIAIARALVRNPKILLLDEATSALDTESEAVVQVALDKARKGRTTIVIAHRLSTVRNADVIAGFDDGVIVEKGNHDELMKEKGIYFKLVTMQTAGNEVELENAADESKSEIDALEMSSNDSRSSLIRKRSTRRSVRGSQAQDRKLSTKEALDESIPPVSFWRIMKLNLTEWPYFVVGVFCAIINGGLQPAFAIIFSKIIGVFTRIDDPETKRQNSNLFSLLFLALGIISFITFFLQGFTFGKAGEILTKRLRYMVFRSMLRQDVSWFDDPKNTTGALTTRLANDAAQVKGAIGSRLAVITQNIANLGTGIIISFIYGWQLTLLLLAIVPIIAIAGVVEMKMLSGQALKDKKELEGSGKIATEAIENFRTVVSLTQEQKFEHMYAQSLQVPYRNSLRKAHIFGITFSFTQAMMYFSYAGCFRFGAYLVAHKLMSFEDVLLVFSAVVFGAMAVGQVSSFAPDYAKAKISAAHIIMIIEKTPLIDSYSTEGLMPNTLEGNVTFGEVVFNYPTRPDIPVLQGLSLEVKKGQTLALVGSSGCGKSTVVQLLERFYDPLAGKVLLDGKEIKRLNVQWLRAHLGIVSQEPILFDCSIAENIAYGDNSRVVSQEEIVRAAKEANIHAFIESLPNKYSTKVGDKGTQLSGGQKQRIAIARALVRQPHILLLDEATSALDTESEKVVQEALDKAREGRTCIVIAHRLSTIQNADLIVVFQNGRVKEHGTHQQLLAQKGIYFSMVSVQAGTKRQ
Series [5] has as its target T2, MDR1 (P-gp). Nature of the series: MDR1 transfected MDCKII canine Mdr1 knockout permeability/efflux, Assay 7. The following applies: dog, MDCK-MDR1.
In series [6] the target is T1, EGFR wild type (EGFR WT). Briefly: Cellular phosphorylation assay, EGF-stimulated EGFR phosphorylation in engineered NIH 3T3 cells, Phospho-EGFR DuoSet IC ELISA, Assay 5. The class given is cell-based. In short, it runs like this: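 NIH 3T3 cells expressing EGFR WT (20,000/well, attached overnight) were exposed to serially diluted compound for 1 h at 37 °C, then stimulated with 100 ng/ml rEGF for 10 min. Phospho-EGFR in lysates measured by sandwich ELISA optical density; IC50 from curves.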

Another series deals with BCRP (Homo sapiens (Human), UniProt Q9UNQ0). Nature of the series: BCRP transfected MDCKII canine Mdr1 knockout permeability/efflux, Assay 9. The following applies: dog, Assay 9 Pe Ratio, efflux ratio Papp(B-A)/Papp(A-B), BCRP transfected MDCKII canine Mdr1 knockout.

We go through 13 compounds from patent US11834453B2, “Substituted pyrimido[5,4-d]pyrimidines as HER2 inhibitors” (Array BioPharma Inc., priority 2020, dated 2023).

Chain of EGFR (P00533 25-1210): as the sequence (P00533 25-1210) above

Broadly, the IC50 is the concentration that inhibits the measured activity by half. Usually efflux ratio stands for a quotient of directional permeabilities that is used to spot active efflux. With `CSc1ncc2ncnc(Nc3ccc(Oc4ccc5c(c4)ncn5C)c(C)c3)c2n1` [Example 1, N-(3-methyl-4-((1-methyl-1H-benzo[d]imidazol-5-yl)oxy)phenyl)-6-(methylthio)pyrimido[5,4-d]pyrimidin-4-amine], the IC50 is 19.3 nM in series [1]; 41.1 nM against ErbB2 WT; at least 10000 nM at EGFR; 29.2 nM in series [2]; 5000 nM against EGFR wild type (EGFR WT) [3]. Besides, the figures for the efflux ratio at 2 h, 1 μM at MDR1 (P-gp) [4] and at MDR1 (P-gp) [5] were 1.2 and 1.4, respectively.

As to `Cc1cc(Nc2ncnc3cnc(S(C)(=O)=O)nc23)ccc1Oc1ccc2c(c1)ncn2C` [Example 2, N-(3-methyl-4-((1-methyl-1H-benzo[d]imidazol-5-yl)oxy)phenyl)-6-(methylsulfonyl)pyrimido[5,4-d]pyrimidin-4-amine], the IC50 in series [1] was found to be 7.9 nM; against ErbB2 WT, 14.9 nM; at EGFR, 4640 nM; in series [2], 4750 nM; on EGFR wild type (EGFR WT) [3] it was 5000 nM.

As for `Cc1cc(Nc2ncnc3cnc(N(C)C)nc23)ccc1Oc1ccc2c(c1)ncn2C` [Example 3, N2,N2-dimethyl-N8-(3-methyl-4-((1-methyl-1H-benzo[d]imidazol-5-yl)oxy)phenyl)pyrimido[5,4-d]pyrimidine-2,8-diamine 2,2,2-trifluoroacetate], the IC50 in series [1] worked out at 12.5 nM; against ErbB2 WT, 52.4 nM; at EGFR, 8250 nM; in [2] it was 42.9 nM; at EGFR wild type (EGFR WT) [3], 5000 nM. Besides, the efflux ratio at 2 h, 1 μM on MDR1 (P-gp) [4] and at MDR1 (P-gp) [5] was 1 throughout.

Take `CNc1ncc2ncnc(Nc3ccc(Oc4ccc5c(c4)ncn5C)c(C)c3)c2n1` [Example 4, N2-methyl-N8-(3-methyl-4-((1-methyl-1H-benzo[d]imidazol-5-yl)oxy)phenyl)pyrimido[5,4-d]pyrimidine-2,8-diamine]: the IC50 in series [1] came out at 8.9 nM; at ErbB2 WT it was 30 nM; against EGFR it was 4900 nM; in [2], 7.2 nM; on EGFR wild type (EGFR WT) [3], 5000 nM. Besides, the efflux ratio at 2 h, 1 μM on MDR1 (P-gp) [4] is 0.9; on MDR1 (P-gp) [5], 1.4.

Turning to `Cc1cc(Nc2ncnc3cnc(S(C)(=O)=O)nc23)ccc1Oc1ccc2c(C)onc2c1` [Example 5, N-(3-methyl-4-((3-methylbenzo[c]isoxazol-6-yl)oxy)phenyl)-6-(methylsulfonyl)pyrimido[5,4-d]pyrimidin-4-amine], the IC50 amounted to 9.8 nM in series [1]; 10.9 nM at ErbB2 WT; 4150 nM against EGFR; 4450 nM in [2]; 5000 nM against EGFR wild type (EGFR WT) [3].

Turning to `COc1ncc2ncnc(Nc3ccc(Oc4ccc5c(C)onc5c4)c(C)c3)c2n1` [Example 6, 6-methoxy-N-(3-methyl-4-((3-methylbenzo[c]isoxazol-6-yl)oxy)phenyl)pyrimido[5,4-d]pyrimidin-4-amine], the IC50 is 24.6 nM in series [1]; 232 nM on ErbB2 WT; at least 10000 nM at EGFR; 1450 nM in series [2]; 5000 nM against EGFR wild type (EGFR WT) [3].

For `COc1ncc2ncnc(Nc3ccc(Oc4ccc5csnc5c4)c(C)c3)c2n1` [Example 7, N-(4-(benzo[c]isothiazol-6-yloxy)-3-methylphenyl)-6-methoxypyrimido[5,4-d]pyrimidin-4-amine 2,2,2-trifluoroacetate], the IC50 amounted to 18.5 nM in [1]; 56.8 nM at ErbB2 WT; 2010 nM at EGFR; 146 nM in series [2]; 5000 nM on EGFR wild type (EGFR WT) [3]. Besides, the efflux ratio at 2 h, 1 μM worked out at 1 at MDR1 (P-gp) [4] and 1.3 on MDR1 (P-gp) [5].

As to `COc1ncc2ncnc(Nc3ccc(Oc4ccc5c(c4)ncn5C)c(C)c3)c2n1` [Example 8, 6-methoxy-N-(3-methyl-4-((1-methyl-1H-benzo[d]imidazol-5-yl)oxy)phenyl)pyrimido[5,4-d]pyrimidin-4-amine 2,2,2-trifluoroacetate], the IC50 in series [1] is 22.7 nM; on ErbB2 WT it was 69.7 nM; on EGFR, at least 10000 nM; in series [2], 159 nM; at EGFR wild type (EGFR WT) [3], 5000 nM. Further, the figures for the efflux ratio at 2 h, 1 μM on MDR1 (P-gp) [4] and on MDR1 (P-gp) [5] were 0.9 and 1, respectively.

On to `Cc1cc(Nc2ncnc3cnc(N4CCOCC4)nc23)ccc1Oc1ccc2c(c1)ncn2C` [Example 9, N-(3-methyl-4-((1-methyl-1H-benzo[d]imidazol-5-yl)oxy)phenyl)-6-morpholinopyrimido[5,4-d]pyrimidin-4-amine 2,2,2-trifluoroacetate], for which the IC50 is 13.6 nM in [1]; 64 nM on ErbB2 WT; at least 10000 nM at EGFR; 4.9 nM in series [2]; 5000 nM against EGFR wild type (EGFR WT) [3]. The efflux ratio at 2 h, 1 μM was determined as 0.8 on MDR1 (P-gp) [4] and 1.2 at MDR1 (P-gp) [5].

Consider `CSc1ncc2ncnc(Nc3ccc(Oc4ccc5conc5c4)c(C)c3)c2n1` [Example 10, N-(4-(benzo[c]isoxazol-6-yloxy)-3-methylphenyl)-6-(methylthio)pyrimido[5,4-d]pyrimidin-4-amine], for which the IC50 in series [1] was 49 nM; against ErbB2 WT, 144 nM; against EGFR, at least 10000 nM; in [2], 671 nM; against EGFR wild type (EGFR WT) [3], 5000 nM.

In the case of `CSc1ncc2ncnc(Nc3ccc(Oc4ccc5c(C)onc5c4)c(C)c3)c2n1` [Example 12, N-(3-methyl-4-((3-methylbenzo[c]isoxazol-6-yl)oxy)phenyl)-6-(methylthio)pyrimido[5,4-d]pyrimidin-4-amine], the IC50 in series [1] was 64.2 nM; at ErbB2 WT, 275 nM; on EGFR, at least 10000 nM; in series [2] it was 403 nM; against EGFR wild type (EGFR WT) [3], 5000 nM.

Regarding `Cn1cnc2cc(Oc3ccc(Nc4ncnc5cnc(N6CC[C@H](CC#N)C6)nc45)cc3Cl)ccc21` [Example 358], the IC50 in series [1] is 53.2 nM; on ErbB2 WT it was 35.8 nM; on EGFR it was at least 10000 nM; in series [2], 19.2 nM; at EGFR wild type (EGFR WT) [6], at least 5000 nM. The figures for the efflux ratio at 2 h, 1 μM on MDR1 (P-gp) [5] and at BCRP were 1.6 and 8.9, respectively.

In the case of `Cc1cc(Nc2ncnc3cnc(N(C)CC4COC4)nc23)ccc1Oc1ccc2c(c1)ncn2C` [Example 402], the IC50 in series [1] is 39.7 nM; on ErbB2 WT it was 14.9 nM; against EGFR, at least 10000 nM; in series [2], 14.9 nM; on EGFR wild type (EGFR WT) [6], at least 5000 nM. Also, the efflux ratio at 2 h, 1 μM at MDR1 (P-gp) [5] turned out to be 1.4; at BCRP, 2.3.
